Values quoted from earlier work, collected in patent publication US20120164210A1, “PHOTODYNAMIC THERAPEUTIC AGENT HAVING CELL-SPECIFIC ACTIVE ACCUMULATION PROPERTIES” (The University of Tokyo, priority 2008, published 2012).

Tests used:
tumor tissue = conditions: in vivo
[1] = after administration, light shielding required

incorporation into tumor tissue relative to normal tissue (tumor tissue): about 4 times | sunlight hypersensitivity as a complication [1]: cause sunlight hypersensitivity
Substance: Photofrin
